ChEMBL document CHEMBL1862790, “Optimisation of fenarimol series for the treatment of Chagas disease”

Experiments:
[1] = tested on: Trypanosoma cruzi; assay: microbe, parasite or virus in culture; assay type: functional, Tulahuen LacZ, Clone C4; conditions: Trypanosoma cruzi, Tulahuen LacZ, Clone C4
[2] = tested on: Trypanosoma cruzi; assay: microbe, parasite or virus in culture; assay type: functional, organism-based, Tulahuen LacZ, Clone C4; conditions: Trypanosoma cruzi, Tulahuen LacZ, Clone C4
[3] = DNDI: Cytotoxicity against L-6 rat myoblasts from skeletal muscle cells; conditions: L6 rat skeletal muscle myoblast cells, IC50

Row | Compound | IC90 [1] | IC50 [2] | IC50 [3]
1 | O=S(=O)(NC1CCN(C(c2ccc(C(F)(F)F)cc2)c2cnccn2)CC1)c1ccccc1 (stereo not given) | 900 nM | 260 nM | 55900 nM
2 | CS(=O)(=O)N1CCC(CNC(c2ccc(C(F)(F)F)cc2)c2cnccn2)CC1 (stereo not given) | 940 nM | 450 nM | > 100000 nM
3 | CCS(=O)(=O)NC1CCN(C(c2cnccn2)c2ccc(F)cc2F)CC1 (stereo not given) | 5420 nM | 1890 nM | > 100000 nM
4 | CC(=O)NC1CCN(C(c2ccc(C(F)(F)F)cc2)c2cnccn2)CC1 (stereo not given) | 3170 nM | 1440 nM | > 100000 nM
5 | O=S(=O)(c1ccc(Cl)cc1)N1CCN(C(c2ccc(Cl)cc2)c2cncnc2)CC1 (stereo not given) | 460 nM | 130 nM | 29000 nM
6 | O=C(NC1CCN(C(c2ccc(C(F)(F)F)cc2)c2cnccn2)CC1)c1ccccc1 (stereo not given) | 720 nM | 200 nM | > 100000 nM
7 | OC(c1ccc(Cl)cc1)(c1cccnc1)c1cnc(Cl)s1 (stereo not given) | > 1000 nM | 490 nM | > 100000 nM
8 | O=S(=O)(c1ccccc1)N1CCN(C(c2ccc(Cl)cc2)c2cncnc2)CC1 (stereo not given) | 320 nM | 66 nM | > 76100 nM
9 | O=S(=O)(Cc1ccccc1)N1CCN(C(c2ccc(Cl)cc2)c2cncnc2)CC1 (stereo not given) | 620 nM | 220 nM | 63000 nM
10 | CS(=O)(=O)NC1CCN(C(c2ccc(C(F)(F)F)cc2)c2cnccn2)CC1 (stereo not given) | 3020 nM | 1220 nM | > 100000 nM
11 | O=C1OC(c2ccc(Cl)cc2)(c2cccnc2)c2ccccc21 (stereo not given) | 870 nM | 230 nM | 84800 nM
12 | O=C(NC1CCN(C(c2ccc(C(F)(F)F)cc2)c2cnccn2)CC1)C1CCCCC1 (stereo not given) | 870 nM | 250 nM | > 100000 nM
13 | O=S(=O)(C1CCCCC1)N1CCN(C(c2ccc(Cl)cc2)c2cncnc2)CC1 (stereo not given) | 850 nM | 65 nM | 56300 nM
14 | CC(C)(C)OC(=O)N1CCN(C(c2ccc(Cl)cc2)c2cccnc2)CC1 (stereo not given) | 68 nM | 27 nM | 47800 nM
15 | O=S(=O)(NC1CCN(C(c2cnccn2)c2ccc(F)cc2F)CC1)c1ccc(Cl)cc1 (stereo not given) | > 1000 nM | > 1000 nM | 34300 nM
16 | CS(=O)(=O)N1CCN(C(c2ccc(Cl)cc2)c2cncnc2)CC1 (stereo not given) | 7540 nM | 880 nM | > 100000 nM
17 | O=S(=O)(NC1CCN(C(c2ccc(C(F)(F)F)cc2)c2cnccn2)CC1)c1ccc(C(F)(F)F)cc1 (stereo not given) | > 1000 nM | 590 nM | 18100 nM
18 | O=C(Cc1ccccc1)NC(c1ccc(C(F)(F)F)cc1)c1cnccn1 (stereo not given) | > 1000 nM | > 1000 nM | > 100000 nM
19 | CC(C)CS(=O)(=O)NC1CCN(C(c2cnccn2)c2ccc(F)cc2F)CC1 (stereo not given) | 3540 nM | 750 nM | > 100000 nM
20 | O=S(=O)(Cc1ccccc1)NC1CCN(C(c2cnccn2)c2ccc(F)cc2F)CC1 (stereo not given) | > 1000 nM | 720 nM | > 100000 nM
21 | CC(C)(C)OC(=O)N1CCN(C(c2ccc(Cl)cc2)c2cncnc2)CC1 (stereo not given) | 280 nM | 130 nM | > 100000 nM
22 | CCC(=O)N1CCN(C(c2ccc(Cl)cc2)c2cncnc2)CC1 (stereo not given) | 4830 nM | 850 nM | > 100000 nM
23 | CN(C)C(=O)NC1CCN(C(c2ccc(C(F)(F)F)cc2)c2cnccn2)CC1 (stereo not given) | > 1000 nM | 250 nM | > 100000 nM
24 | CC(C)c1ccc(S(=O)(=O)NC2CCN(C(c3ccc(C(F)(F)F)cc3)c3cnccn3)CC2)cc1 (stereo not given) | > 1000 nM | 520 nM | 18400 nM
25 | O=C(C1CC1)N1CCN(C(c2ccc(Cl)cc2)c2cncnc2)CC1 (stereo not given) | 920 nM | 500 nM | > 100000 nM

Row | Compound | IC90 [1] | IC50 [2] | IC50 [3]
26 | CC(C)c1ccc(S(=O)(=O)NC2CCN(C(c3cnccn3)c3ccc(F)cc3F)CC2)cc1 (stereo not given) | > 1000 nM | 850 nM | 25500 nM
27 | CCN1CCC(NC(c2ccc(C(F)(F)F)cc2)c2cnccn2)CC1 (stereo not given) | > 1000 nM | > 1000 nM | > 100000 nM
28 | CC(C)(C)OC(=O)N1CCC(CNC(c2ccc(C(F)(F)F)cc2)c2cnccn2)CC1 (stereo not given) | 260 nM | 76 nM | 73300 nM
29 | CC(C)(C)OC(=O)NC1CCN(C(c2cnccn2)c2ccc(F)cc2F)CC1 (stereo not given) | 650 nM | 260 nM | > 100000 nM
30 | O=S(=O)(NC1CCN(C(c2ccc(C(F)(F)F)cc2)c2cnccn2)CC1)c1ccc(Cl)cc1 (stereo not given) | > 1000 nM | 700 nM | 18900 nM
31 | O=S(=O)(NC1CCN(C(c2cnccn2)c2ccc(F)cc2F)CC1)c1ccc(C(F)(F)F)cc1 (stereo not given) | > 1000 nM | > 1000 nM | 29400 nM
32 | CS(=O)(=O)NC1CCN(C(c2cnccn2)c2ccc(F)cc2F)CC1 (stereo not given) | 4980 nM | 1380 nM | > 100000 nM
33 | O=C(C1CCCCC1)N1CCN(C(c2ccc(Cl)cc2)c2cncnc2)CC1 (stereo not given) | 920 nM | 320 nM | > 100000 nM
34 | CN(C)C(=O)c1cccc(C(O)(c2ccc(Cl)cc2)c2cccnc2)c1 (stereo not given) | 410 nM | 180 nM | > 100000 nM
35 | O=C(Cc1ccccc1)N1CCC(NC(c2ccc(C(F)(F)F)cc2)c2cnccn2)CC1 (stereo not given) | 950 nM | 540 nM | 70500 nM
36 | CC(C)S(=O)(=O)N1CCN(C(c2ccc(Cl)cc2)c2cncnc2)CC1 (stereo not given) | 720 nM | 230 nM | > 100000 nM
37 | CC(C)CS(=O)(=O)NC1CCN(C(c2ccc(C(F)(F)F)cc2)c2cnccn2)CC1 (stereo not given) | 880 nM | 550 nM | 62300 nM
38 | CC(C)(C)OC(=O)N1CCC(NC(c2cnccn2)c2ccc(F)cc2F)CC1 (stereo not given) | 710 nM | 210 nM | > 100000 nM
39 | CCC(=O)NC1CCN(C(c2ccc(C(F)(F)F)cc2)c2cnccn2)CC1 (stereo not given) | 7600 nM | 1040 nM | > 100000 nM
40 | O=S(=O)(Cc1ccccc1)NC1CCN(C(c2ccc(C(F)(F)F)cc2)c2cnccn2)CC1 (stereo not given) | 780 nM | 310 nM | 54900 nM
41 | O=S(=O)(c1ccc(C(F)(F)F)cc1)N1CCN(C(c2ccc(Cl)cc2)c2cncnc2)CC1 (stereo not given) | > 1000 nM | 290 nM | 57000 nM
42 | Clc1ccc(C(c2cncnc2)N2CCNCC2)cc1 (stereo not given) | > 1000 nM | > 1000 nM | > 100000 nM
43 | CCN(CC)C(=O)c1cccc(C(O)(c2ccc(Cl)cc2)c2cccnc2)c1 (stereo not given) | 280 nM | 150 nM | > 100000 nM
44 | CC(C)C(=O)N1CCN(C(c2ccc(Cl)cc2)c2cncnc2)CC1 (stereo not given) | 940 nM | 370 nM | > 100000 nM
45 | OC(c1cccnc1)c1ccc(Cl)cc1F (stereo not given) | > 1000 nM | > 1000 nM | > 100000 nM
46 | CCS(=O)(=O)NC1CCN(C(c2ccc(C(F)(F)F)cc2)c2cnccn2)CC1 (stereo not given) | 6470 nM | 1140 nM | > 100000 nM
47 | CCS(=O)(=O)N1CCN(C(c2ccc(Cl)cc2)c2cncnc2)CC1 (stereo not given) | 850 nM | 260 nM | > 100000 nM
48 | CCC(=O)NC(c1ccc(C(F)(F)F)cc1)c1cnccn1 (stereo not given) | > 1000 nM | > 1000 nM | > 100000 nM
49 | CCS(=O)(=O)N1CCN(C(c2ccc(Cl)cc2)c2cccnc2)CC1 (stereo not given) | 140 nM | 47 nM | > 100000 nM
50 | O=C(NCc1ccccc1)c1cccc(C(O)(c2ccc(Cl)cc2)c2cccnc2)c1 (stereo not given) | 400 nM | 160 nM | 84000 nM
